Assay results published in US20250043290A1, “RNA SEQUENCES THAT INDUCE FLUORESCENCE OF SMALL MOLECULE FLUOROPHORES, MOLECULAR COMPLEXES, SENSORS, AND METHODS OF USE THEREOF” (CORNELL UNIVERSITY, priority 2021, published 2025).
“Also recorded” adds a separate entry of the source.

How the values were obtained:
HEK293T cells = assay: Imaging Beetroot in HEK293T cells; assay type: cell-based; conditions: Tornado circular RNA, tRNA or F30-tRNA scaffold, 10 μM DFAME, 5 mM MgCl2
Protocol: FIGS. 35A-35B show imaging Beetroot in HEK293T cells. To test whether Beetroot could be imaged in HEK293T cells, Beetroot was expressed in Tornado. […] FIG. 35B are images showing HEK293T cells which were transiently transfected with Beetroot-expressing plasmids. About 36 hours after transfection, these transfected HEK293T cells were incubated with 10 μM DFAME and 5 mM MgCl2 for 1 hour prior to imaging. Detectable levels of red fluorescence were not observed in HEK293T cells. Data shown here is a representative image from three independent cell cultures. Scale bar, […].
Prior to imaging experiments, HEK293T cells were incubated with 1 μl of Hoechst 33342 (Thermo Fisher Scientific, H3570) per 2 ml of imaging media (phenol red-free Dulbeco's modified Eagle's medium (Thermo Fisher Scientific 31053-028) supplemented with 10% fetal bovine serum (Corning 35-010-CV), 100 U ml-1 of penicillin and […] of streptomycin, 1× GlutaMAX (Thermo Fisher Scientific, 35050-061) and 1 mM sodium pyruvate (Thermo Fisher Scientific, 11360-070)). For imaging experiments of RNA-fluorophore complex, HEK293T cells were incubated with imaging media supplemented with a final concentration of 10 μM fluorophore (DFHO or DFAME) and 5 mM MgCl2 for one hour prior to imaging.

[1] = Fluorescence activation of DFAME by aptamers in vitro; assay type: biochemical; conditions: in vitro
Protocol: (§1) To test whether Beetroot can activate DFHO, the fluorescence emission spectrum of the Beetroot-DFHO complex was measured. In brief, 20 μM Beetroot and 2 μM DFHO were mixed, and the fluorescence emission of the Beetroot-DFHO complex was measured. […] To test whether Beetroot can activate DFHBI-1T, the fluorescence emission spectrum of the Beetroot-DFHBI-1T complex was measured using the same protocol described in FIG. 32A. […] To test whether Beetroot can activate BI, the fluorescence emission spectrum of the Beetroot-BI complex was measured using the same protocol described in FIG. 32A. […] To test whether Corn can activate DFAME, the fluorescence emission spectrum of the Corn-DFAME complex was measured using the same protocol described in FIG. 32A.
The eluted RNAs were then ethanol precipitated, reverse transcribed, PCR amplified and in vitro transcribed to yield the pool for the next SELEX round. The presence of fluorescent RNA species in each pool was assessed by mixing 20 μM RNA and 10 μM DFAME and measuring fluorescence emission of this solution on a fluorometer in comparison with the fluorophore alone. At this point, RNAs were cloned into bacterial expression plasmids for FACS-based screening.
dsDNA encoding the top-performing RNA sequences from the brightest bacterial colonies was PCR amplified from the purified plasmids. […] The resulting RNA was then purified using Zymo RNA concentrator columns and quantified by absorbance using a Thermo Scientific NanoDrop 2000 spectrophotometer. For absorption, excitation and emission spectra measurements, “excess RNA” conditions and limiting amount of fluorophore was used to ensure that no free fluorophore contributes to the absorbance or fluorescence signal. The RNA concentration used for fluorescence and absorbance measurements was 20 μM and 50 μM, respectively, while the dye concentration was 2 μM and 5 μM, respectively. All in vitro RNA properties were measured in 40 mM HEPES pH 7.4, 100 mM KCl, 5 mM MgCl2 buffer, unless specified.

[2] = Fluorescence emission of Beetroot with BI; assay type: biochemical; conditions: 20 μM RNA, 2 μM dye
Protocol: as §1

Beetroot = Beetroot homodimer dissociation, serial dilution and non-denaturing gel electrophoresis; assay type: binding; conditions: dilution 1000 nM to 1.4 nM, 20° C., 12 hours; read-out: Homodimerization dissociation constant (Kd)
Protocol: FIGS. 33A-33C provide the dissociation constant (Kd) of Beetroot homodimer. […] These RNAs were incubated at 20° C. for 12 hours and then analyzed using non-denaturing gel electrophoresis (FIG. 33A). The fraction of Beetroot monomer (FIG. 33B) and Beetroot dimer (FIG. 33C) were quantified after SYBR Gold staining. […] The RNA band marked with an asterisk (*) reflects an RNA side product from in vitro transcription. The same side product band was also observed in FIGS. 27B-27C. Quantification shown in […] is based on two independent experiments. FIG. 33D are images showing genetic encoding of simple macromolecular RNA assemblies in cells using Corn when circular RNAs containing 3 and 5 copies of Corn were expressed in HEK293T cells. Clusters of these Corn-containing RNAs were observed as large intracellular puncta. Data shown here is a representative image from three independent cell cultures. Scale bar, 20 μm. FIG. 33E is a graph showing the quantification of the fraction of Corn and Beetroot in the cell that accumulates in puncta. As the valency of Corn increases from three to five, the fraction of Corn participating in the RNA assembly increases from 28±12% to 57±14%. Compared to 5× Corn, a fraction of 27±11% of 5× Beetroot are participating in the Beetroot RNA assembly. Values are means±s.d. FIG. 33F is a graph showing quantification of RNA assembly size in cells. […]

Corn = assay: Beetroot-Corn heterodimer formation, nondenaturing electrophoretic analysis; assay type: binding; conditions: equimolar mixture, heat-denatured and cooled
Protocol: FIG. 27B is an image showing that Beetroot is a dimer in vitro. To test this, nondenaturing electrophoretic analysis was performed on a wild-type Beetroot and a mutant Beetroot with mutations in the G-quadruplex that are expected to disrupt any putative dimer formation. […] The RNA band marked with an asterisk (*) reflects an RNA side product from in vitro transcription. […] To test whether Beetroot and Corn can form heterodimers in vitro, nondenaturing electrophoretic analysis was performed on Beetroot, Corn, and a Beetroot-Corn equimolar mixture to measure heterodimer formation. If Beetroot (107 nt) and Corn (250 nt) are orthogonal dimers, two distinct molecular species would be expected: dimeric Beetroot and dimeric Corn. On the other hand, if Beetroot-Corn heterodimers are formed, a third molecular species, reflecting a Beetroot-Corn heterodimer, with a molecular weight in between dimeric Beetroot and dimeric Corn, would be expected. […] In-gel staining with DFAME and DFHO also confirmed the identity of the putative dimeric species. The RNA band marked with an asterisk (*) reflects an RNA side product from in vitro transcription. A final concentration of 350 nM RNA was used in each lane. […]

[3] = Fluorescence emission of Beetroot with DFHBI-1T; assay type: biochemical; conditions: 20 μM RNA, 2 μM dye
Protocol: as §1

[4] = Fluorescence emission of Beetroot with DFHO; assay type: biochemical; conditions: 20 μM Beetroot, 2 μM DFHO
Protocol: as §1

Beetroot: red-fluorescent dimeric fluorogenic RNA aptamer binding DFAME, SEQ ID NO: 96 (GUUAGGCAGAGGUGGGUGGUGUGGAGGAGUAUCUGUC; RNA, backbone not given here)
Red fluorescence in cells (HEK293T cells): not observed
Fold fluorescence enhancement of DFAME [1]: approximately 40 fold
Binding and activation of BI fluorescence [2]: cannot bind and activate
Kd (Beetroot): < 1 nM
Heterodimer formation with Corn (Corn): no mixed Corn-Beetroot heterodimers
Binding and activation of DFHBI-1T fluorescence [3]: cannot bind and activate
Binding and activation of DFHO fluorescence [4]: weakly binds and activates; also recorded: only weakly bind and activate
